≈ marks a conversion by molar mass, not a printed value. Where two headings read alike, the source gives them in different places.
Tests used:
P. aeruginosa LpxC = P. aeruginosa LpxC (Pseudomonas aeruginosa (strain ATCC 15692 / DSM 22644 / CIP 104116 / JCM 14847 / LMG 12228 / 1C / PRS 101 / PAO1), UniProt P47205); assay: biochemical; assay type: biochemical; settings: 5 nM P. aeruginosa LpxC, 2.5 μM substrate, 1 hour at room temperature
Protocol: (§1) Exemplary compounds from the above Examples were tested for ability to inhibit LpxC activity using an in vitro substrate deacetylation assay with ADDA™ analysis. Assay procedures and results are described below.
(§2) For ADDA™ analysis, an aliquot of assay sample was withdrawn from each well of the 384-well plate and applied to a Hypercarb cartridge (Optimize Technologies, USA) under conditions designed to retain analytes of interest. Analytes were eluted using 1:1:2 acetone:acetonitrile:water containing 5 mM ammonium acetate then analysed by triple-quadrupole mass spectrometry. Mass spectrometry was carried out using electrospray ionization in negative ion mode.
For IC50 determinations, peak areas of the substrate and product were compared to compute the proportion of substrate reacted by the LpxC enzyme at each compound concentration.

E. coli LpxC = E. coli LpxC (Escherichia coli (strain K12), UniProt P0A725); assay: in vitro substrate deacetylation assay for inhibition of LpxC (ADDA analysis); assay type: biochemical; settings: 5 nM E. coli LpxC, 2.5 μM substrate, 1 hour at room temperature
Chain of E. coli LpxC (P0A725 whole entry): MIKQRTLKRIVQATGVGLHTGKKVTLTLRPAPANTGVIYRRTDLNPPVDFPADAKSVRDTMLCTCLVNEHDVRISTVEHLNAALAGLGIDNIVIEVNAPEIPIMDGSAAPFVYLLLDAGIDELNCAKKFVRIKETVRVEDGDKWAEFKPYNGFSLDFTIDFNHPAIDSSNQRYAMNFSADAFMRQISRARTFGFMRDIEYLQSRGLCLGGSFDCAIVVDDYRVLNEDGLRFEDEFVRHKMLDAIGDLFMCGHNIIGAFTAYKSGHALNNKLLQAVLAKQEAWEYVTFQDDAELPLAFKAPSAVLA
Protocol: as §1
Dilutions of test compound were pre-incubated with 5 nM P. aeruginosa or E. coli LpxC for 10 minutes at room temperature in 50 mM NaH2PO4, 500 mM sucrose, 0.2 mg/mL BSA, pH 7.2 and <1% DMSO. Reactions were initiated by the addition of 2× substrate (UDP-3-O—(R-3-hydroxydecanoyl)-N-acetylglucosamine, Carbosynth Ltd, UK, for P. aeruginosa LpxC and UDP-3-O—(R-3-hydroxymyristoyl)-N-acetylglucosamine, BOC Sciences, USA, for E. coli LpxC), in 50 mM NaH2PO4, 0.5 mg/mL BSA, pH 7.2, to a final concentration of 2.5 μM. Reactions proceeded for 1 hour at room temperature prior to quenching with and equal volume of 2% acetic acid.
as §2, with “mode. Daughter ion peaks representing detected substrate (P. aeruginosa: parent Q1 mass=775.8 amu, daughter Q3 mass=384.7 amu E. coli: parent Q1 mass=833.0 amu, daughter Q3 mass=385.0 amu, collision energy=analyte specific, dwell time=50 ms) were identified using a multiple-reaction monitoring protocol.” for “mode.”
Total activity (0% inhibition) was obtained from reactions containing no compound, and 100% inhibition is defined as reactions in the presence of 1 μM CHIR-090 (N-[(1S,2R)-2-hydroxy-1-[(hydroxyamino)carbonyl]propyl]-4-[2-[4-(4-morpholinylmethyl)phenyl]ethynyl]-benzamide). For IC50 determinations, peak areas of the substrate and product were compared to compute the proportion of substrate reacted by the LpxC enzyme at each compound concentration. The fractional activity was converted to percentage inhibition and plotted against compound concentration in ActivityBase™ and fit using a four-parameter logistic using non-linear regression to yield the IC50 value.

[1] = system: P. aeruginosa PAO1 isogenic mutant deficient in MexA mediated efflux; assay: broth microdilution minimum inhibition concentration assay; assay type: cell-based; settings: Pseudomonas aeruginosa, PAO1, read-out: P. aeruginosa KO MIC
Protocol: (§3) Exemplary compounds from the above Examples were tested to determine their minimum inhibitory concentration (MIC) for exemplary strains of Eschericia and Pseudomonas bacteria using broth microdilution methods. Assay procedures and results are described below.
(§4) Broth microdilution assays were conducted according to Clinical and Laboratory Standards Institute guidelines (CLSI, M07-A11: Clinical and Laboratory Standards Institute. Methods for Dilution Antimicrobial Susceptibility Tests for Bacteria that Grow Aerobically; Approved Standard—11th Edition. Wayne, PA: CLSI, 2018.). Briefly, a 0.5 McFarland standard suspension was made from bacterial isolates on non-selective, solid media. The inocula were adjusted to give a bacterial concentration of 1×10^6 CFU/mL. Serial doubling-dilutions of each compound were prepared in cation-adjusted Mueller-Hinton broth (Sigma-Aldrich) in 96-well microdilution plates. A 50 μL aliquot of the inoculum was added to each microdilution plate and, within 15 minutes, incubated at 37° C. in air for 16-20 h. […] The test was controlled by the determination of piperacillin MIC against both E. coli ATCC 25922 and P. aeruginosa ATCC 27853 and ensuring accordance with the ranges published in CLSI supplementary document M100 (CLSI, M100Ed29: Clinical and Laboratory Standards Institute. Performance Standards for Antimicrobial Susceptibility Testing, 29th Edition. Wayne, PA: CLSI, 2018.).
(§5) Multiple enterobacteriaceae strains were tested, including E. coli ATCC 25922 and K. pneumoniae ATCC 43816. WT E. coli BW25113 was tested with an isogenic mutant deficient in acrA mediated efflux by clean deletion. WT P. aeruginosa PAO1 was tested with an isogenic mutant deficient in MexA mediated efflux by clean deletion.
(§6) Experimental results are provided in Table 4, which provides MIC values for wild-type E. coli BW25113 (“E. coli WT MIC”), an isogenic mutant deficient in acrA mediated efflux by clean deletion (“E. coli KO MIC”), wild-type P. aeruginosa PAO1 (“P. aeruginosa WT MIC”), and an isogenic mutant deficient in MexA mediated efflux by clean deletion (“[…]”).

[2] = system: wild-type E. coli BW25113; assay: as above; assay type: cell-based; settings: Escherichia coli; wild-type E. coli BW25113, 37° C. 16-20 h; read-out: E. coli WT MIC
Protocol: as §3, §4, §5, §6

[3] = system: E. coli BW25113 isogenic mutant deficient in acrA mediated efflux; assay: as above; assay type: cell-based; settings: Escherichia coli, BW25113, read-out: E. coli KO MIC
Protocol: as §3, §4, §5, §6

[4] = system: wild-type P. aeruginosa PAO1; assay: as above; assay type: cell-based; settings: Pseudomonas aeruginosa
Protocol: as §3, §4, §5, §6

[5] = wild-type P. aeruginosa PAO1, 37° C. 16-20 h, read-out: P. aeruginosa WT MIC
[6] = PAO1, read-out: P. aeruginosa WT MIC

Structure (SMILES)	IC50 (P. aeruginosa LpxC) [nM]	IC50 (E. coli LpxC) [nM]	MIC [1] [µM]	MIC [2] [µM]	MIC [3] [µM]	MIC [4, 5] [µM]	MIC [4, 6] [µM]
O=C(N[C@@H]1C[C@H](C(=O)NCc2ccc(C#Cc3ccc(CN4CCOCC4)cc3)cc2)N(C(=O)OC2CC2)C1)[C@@H]1C[C@H](F)CN1 [Example 9AW]	< 50	< 500	< 20	> 100	< 20	> 100	–
CC(C)C(=O)N1C[C@H](NC(=O)[C@@H]2CCCN2)C[C@@H]1C(=O)NCc1ccc(C#Cc2ccccc2)cc1 [Example 9J]	100 to 1000	2500 to 10000	> 100	> 100	20 to 100 (≈ 9.73 to 48.7 µg/mL)	–	> 100
CC(C)C(=O)N1C[C@H](NC(=O)[C@@H]2CCCN2)C[C@@H]1C(=O)NCc1ccc(C#CC#CC2CC2)cc1 [Example 9L]	100 to 1000	500 to 2500	20 to 100 (≈ 9.49 to 47.5 µg/mL)	> 100	20 to 100 (≈ 9.49 to 47.5 µg/mL)	–	> 100
CC(C)C(=O)N1C[C@H](NC(=O)[C@@H]2C[C@@H](C#N)CN2)C[C@@H]1C(=O)NCc1ccc(C#Cc2ccc(CN3CCOCC3)cc2)cc1 [Example 9AC, (2R,4R)-4-((2S,4R)-4-Cyanopyrrolidine-2-carboxamido)-1-isobutyryl-N-(4-((4-(morpholinomethyl)phenyl)ethynyl)benzyl)pyrrolidine-2-carboxamide]	< 50	500 to 2500	> 100	> 100	> 100	> 100	–
CC(C)C(=O)N1C[C@H](NC(=O)[C@@H]2C[C@H](F)CN2)C[C@@H]1C(=O)NCc1ccc(C#CC#CC2CC2)cc1 [Example 9B]	< 50	500 to 2500	< 20	> 100	20 to 100 (≈ 9.85 to 49.3 µg/mL)	–	> 100
CNCCC(=O)N1C[C@H](NC(=O)[C@@H]2C[C@H](F)CN2)C[C@@H]1C(=O)NCc1ccc(C#CC#CC2CC2)cc1 [Example 9Q]	50 to 100	2500 to 10000	> 100	> 100	> 100	–	> 100
CC(C)C(=O)N1C[C@H](NC(=O)[C@H]2NCC[C@@H]2O)C[C@@H]1C(=O)NCc1ccc(C#Cc2ccc(CN3CCOCC3)cc2)cc1 [Example 9AA]	< 50	500 to 2500	20 to 100 (≈ 12 to 60.2 µg/mL)	> 100	> 100	–	> 100
CC(C)C(=O)N1C[C@H](NC(=O)[C@@H]2CC(F)(F)CN2)C[C@@H]1C(=O)NCc1ccc(C#Cc2ccc(CN3CCOCC3)cc2)cc1 [Example 9F]	50 to 100	500 to 2500	20 to 100 (≈ 12.4 to 62.2 µg/mL)	> 100	20 to 100 (≈ 12.4 to 62.2 µg/mL)	–	> 100
CC(C)C(=O)N1C[C@H](NC(=O)[C@H]2NCC[C@H]2O)C[C@@H]1C(=O)NCc1ccc(C#CC#CC2CC2)cc1 [Example 9W, (2R,4R)—N-(4-(cyclopropylbuta-1,3-diyn-1-yl)benzyl)-4-((2S,3R)-3-hydroxypyrrolidine-2-carboxamido)-1-isobutyrylpyrrolidine-2-carboxamide]	100 to 1000	> 10000	> 100	> 100	> 100	–	> 100
COC(=O)N1C[C@H](NC(=O)[C@@H]2C[C@H](F)CN2)C[C@@H]1C(=O)NCc1ccc(C#Cc2ccc(CN3CCOCC3)cc2)cc1 [Example 9AG]	< 50	< 500	< 20	20 to 100 (≈ 11.8 to 59.2 µg/mL)	< 20	> 100	–
CC(C)C(=O)N1C[C@H](NC(=O)[C@@H]2C[C@@H](F)CN2)C[C@@H]1C(=O)NCc1ccc(C#Cc2ccc(CN3CCOCC3)cc2)cc1 [Example 9H]	100 to 1000	2500 to 10000	> 100	> 100	> 100	–	> 100
O=C(NC[C@H]1C[C@@H](NC(=O)[C@@H]2C[C@H](F)CN2)CN1C(=O)C1CC1)c1ccc(C#Cc2ccccc2)cc1 [Example 9AX]	< 50	< 500	< 20	< 20	< 20	> 100	–
CN(C)C(=O)N1C[C@H](NC(=O)[C@@H]2C[C@H](F)CN2)C[C@@H]1C(=O)NCc1ccc(C#Cc2ccc(CN3CCOCC3)cc2)cc1 [Example 9AH]	< 50	500 to 2500	< 20	> 100	20 to 100 (≈ 12.1 to 60.5 µg/mL)	> 100	–
CC(C)C(=O)N1C[C@H](NC(=O)[C@@H]2C[C@H](C#N)CN2)C[C@@H]1C(=O)NCc1ccc(C#Cc2ccc(CN3CCOCC3)cc2)cc1 [Example 9AD, (2R,4R)-4-((2S,4S)-4-Cyanopyrrolidine-2-carboxamido)-1-isobutyryl-N-(4-((4-(morpholinomethyl)phenyl)ethynyl)benzyl)pyrrolidine-2-carboxamide]	< 50	< 500	< 20	> 100	20 to 100 (≈ 12.2 to 61.1 µg/mL)	> 100	–
O=C(N[C@@H]1C[C@H](C(=O)NCc2ccc(C#Cc3ccc(CN4CCOCC4)cc3)cc2)N(C(=O)C2CC2)C1)[C@@H]1C[C@H](F)CN1 [Example 9AJ]	< 50	< 500	< 20	20 to 100 (≈ 12 to 60.2 µg/mL)	< 20	> 100	–
NCCCC(=O)N1C[C@H](NC(=O)[C@@H]2C[C@H](F)CN2)C[C@@H]1C(=O)NCc1ccc(C#CC#CC2CC2)cc1 [Example 9O]	50 to 100	2500 to 10000	> 100	> 100	> 100	–	> 100
O=C(N[C@@H]1C[C@H](C(=O)NCc2ccc(C#CC#CC3CC3)cc2)N(CCO)C1)[C@@H]1C[C@H](F)CN1 [Example 9AQ]	100 to 1000	2500 to 10000	> 100	> 100	> 100	–	> 100
CC(C)C(=O)N1C[C@H](NC(=O)[C@@H]2C[C@H](F)CN2)C[C@@H]1C(=O)NCc1ccc(C#CC#Cc2ccccc2)cc1 [Example 9AT]	< 50	500 to 2500	< 20	> 100	< 20	> 100	–

Source: patent publication US20250171400A1, “AZA-HETEROCYCLYL CARBOXAMIDE AND RELATED COMPOUNDS AND THEIR USE IN TREATING MEDICAL CONDITIONS” (X-BIOTIX THERAPEUTICS, INC., priority 2021, published 2025)
